Measured values from patent US20260355192A1, “PROPHYLACTIC OR THERAPEUTIC AGENT FOR PERIOSTIN-MEDIATED DISEASE AND PRURITUS ASSOCIATED THEREWITH” (SAGA UNIVERSITY, priority 2022, published 2026).
One block for each molecule: values may come before it.

Experiments:
integrin αvβ3 [1] = details: Nanri Y, et al. 2020; cited from earlier work
[2] = system: scratching behaviors in FADS mice; assay: Scratching behaviors in FADS mice upon single systemic administration of αvβ3 integrin inhibitors; format: in vivo, mouse (FADS, Nestin-cre/Ikk2ff); details: for % Change from baseline in the number of scratchings (mean ± standard error): single, 60 minutes after administration vs before administration
Source text: Nestin-cre transgenic mice were crossed with IKK2^ff mice to prepare Nestin-cre/Ikk2^ff mice specifically lacking IKK2 in their facial skin fibroblasts (Nunomura S, et al. J Invest Dermatol. 139:1274-1283, 2019). These mice inevitably develop atopic dermatitis-like rash limited to the face and intense itchy symptoms, and were therefore designated as Facial Atopic Dermatitis with Scratching (FADS) mice. […] For evaluation of the prophylactic or therapeutic agent of the present invention, FADS mice at 3 to 4 weeks of age or older were used because of showing spontaneous scratching behaviors. It should be noted that in this Example section, the above compound of formula (I) (more particularly “CP4715”) was used as the prophylactic or therapeutic agent of the present invention.
FADS mice were acclimated for 20 minutes to the environment of a recording cage, and then recorded with a video camera. The recorded videos were replayed, and scratching behaviors were counted assuming that hind paw scratching to the face and the subsequent movement of toe licking or paw lowering to the ground were regarded as one cycle of scratching behavior.
(§1) Prior to the administration of the above αvβ3 integrin inhibitors, FADS mice were recorded for 60 minutes with a video camera and then allowed to rest for 15 minutes. The compounds except for GLPG-0187 were each dissolved at 89.5 mM in a diluent (physiological saline containing 50% DMSO and 89.5 mM HCL), from which an amount corresponding to 53.7 μmol/kg per mouse was then taken and diluted with 0.3 mL of PBS, and then administered intraperitoneally. […] Mice administered with 0.3 mL of PBS containing an equal amount of the diluent as calculated based on the body weight were used as a control group.
The mice were recorded for 60 minutes with a video camera immediately after administration of the above αvβ3 integrin inhibitors. The number of scratchings before administration was used as a baseline, and % change from the baseline after administration was calculated for each compound. For statistical analysis, paired t-test was used. A P-value of less than 0.05 was considered to be statistically significant. The effect of an inhibitor whose mean change from the baseline was −65% or more at a P-value of less than 0.01 was expressed as “++”; the effect of an inhibitor whose mean change from the baseline was −60% or less at a P-value of less than 0.05 was expressed as “+”; and the effect of an inhibitor whose mean change from the baseline was −60% or less at a P-value of 0.05 or higher was expressed as “−.”

integrin αvβ3 [3] = details: cited from earlier work
integrin αvβ3 [4] = target: T1, integrin αvβ3 (Homo sapiens, UniProt P05106+P06756); assay: Inhibition of periostin-dependent adhesion of SW480 cells expressing integrin αvβ3; format: cell-based; details: immobilized recombinant human periostin, FIG. 6; for IC50: SW480 cells expressing human integrin β3, compounds at 0.001-1 μM, read-out: 50% inhibition concentration (IC50 value) for cell adhesion inhibitory activity; for cell adhesion inhibitory effect (in words): SW480 cells expressing integrin αvβ3
T1 construct: SW480 cells, a human colon cancer cell line not expressing integrin β3; expressed in transfected cells; host or cells: SW480 cells (human colon cancer) stably expressing human integrin β3
T1 sequence (P06756 31-889 limits assumed): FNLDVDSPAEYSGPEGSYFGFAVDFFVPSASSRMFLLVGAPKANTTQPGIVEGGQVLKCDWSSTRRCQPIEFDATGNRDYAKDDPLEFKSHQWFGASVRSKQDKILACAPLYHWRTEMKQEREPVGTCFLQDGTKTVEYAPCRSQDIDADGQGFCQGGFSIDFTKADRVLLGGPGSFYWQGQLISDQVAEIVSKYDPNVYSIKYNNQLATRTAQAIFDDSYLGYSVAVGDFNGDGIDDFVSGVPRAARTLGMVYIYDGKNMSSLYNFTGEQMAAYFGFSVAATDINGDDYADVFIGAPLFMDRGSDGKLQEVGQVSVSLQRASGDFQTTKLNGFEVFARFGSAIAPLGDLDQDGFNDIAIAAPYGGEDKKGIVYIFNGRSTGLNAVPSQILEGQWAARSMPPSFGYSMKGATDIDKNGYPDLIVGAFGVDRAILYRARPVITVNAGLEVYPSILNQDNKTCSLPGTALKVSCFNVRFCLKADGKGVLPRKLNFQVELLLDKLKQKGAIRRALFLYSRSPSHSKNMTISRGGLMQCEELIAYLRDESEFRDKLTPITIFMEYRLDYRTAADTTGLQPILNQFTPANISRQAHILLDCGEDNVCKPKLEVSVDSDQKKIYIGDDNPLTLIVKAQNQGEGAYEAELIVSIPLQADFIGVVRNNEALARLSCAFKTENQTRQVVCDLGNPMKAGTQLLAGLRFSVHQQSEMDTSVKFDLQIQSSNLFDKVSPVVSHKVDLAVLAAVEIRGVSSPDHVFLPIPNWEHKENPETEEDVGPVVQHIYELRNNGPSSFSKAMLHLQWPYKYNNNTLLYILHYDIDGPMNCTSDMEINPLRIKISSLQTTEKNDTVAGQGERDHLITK
T1 sequence (P06756 891-1048 partner limits assumed): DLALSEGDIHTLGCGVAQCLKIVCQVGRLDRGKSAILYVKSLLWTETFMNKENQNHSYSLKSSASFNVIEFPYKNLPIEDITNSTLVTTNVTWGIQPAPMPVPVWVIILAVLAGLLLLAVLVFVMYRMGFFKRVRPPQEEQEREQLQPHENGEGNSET
T1 sequence (P05106 27-788): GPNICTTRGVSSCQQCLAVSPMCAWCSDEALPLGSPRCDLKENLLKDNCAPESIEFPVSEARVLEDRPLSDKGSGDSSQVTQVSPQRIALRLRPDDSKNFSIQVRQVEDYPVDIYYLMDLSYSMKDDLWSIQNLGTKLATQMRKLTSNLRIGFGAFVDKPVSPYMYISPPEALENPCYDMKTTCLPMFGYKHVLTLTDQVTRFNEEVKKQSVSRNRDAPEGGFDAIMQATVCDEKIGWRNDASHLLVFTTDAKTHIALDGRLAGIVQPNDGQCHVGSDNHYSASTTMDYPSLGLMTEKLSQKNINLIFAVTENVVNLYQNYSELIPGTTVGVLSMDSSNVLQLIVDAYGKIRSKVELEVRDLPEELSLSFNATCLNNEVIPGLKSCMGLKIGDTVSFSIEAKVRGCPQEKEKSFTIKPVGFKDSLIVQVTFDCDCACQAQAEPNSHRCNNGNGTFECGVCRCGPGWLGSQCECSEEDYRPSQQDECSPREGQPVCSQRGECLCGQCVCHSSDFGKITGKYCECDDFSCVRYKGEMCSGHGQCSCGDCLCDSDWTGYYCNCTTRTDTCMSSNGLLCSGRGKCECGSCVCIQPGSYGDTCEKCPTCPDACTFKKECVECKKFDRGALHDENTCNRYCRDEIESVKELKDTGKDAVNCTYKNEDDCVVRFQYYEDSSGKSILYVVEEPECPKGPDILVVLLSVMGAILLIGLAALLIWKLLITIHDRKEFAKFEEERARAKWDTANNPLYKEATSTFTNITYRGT
Procedure: For use in cell adhesion experiments, SW480 cells, a human colon cancer cell line not expressing integrin β3, were genetically engineered to stably express human integrin β3 (Nanri Y, et al. Am J Respir Cell Mol Biol. 62:204-216, 2020). The compounds shown in Table 1 were examined for their inhibitory activity against adhesion between integrin αvβ3 and periostin according to the following procedures. First, a 96-well plate was treated with 10 μg/mL recombinant human periostin (Bio-Techne) at 4 °C for 16 hours to immobilize periostin. The SW480 cells expressing integrin αvβ3 (5×10^4 cells) were reacted at room temperature for 15 minutes with the above compounds at 0.001, 0.01, 0.1 and 1 μM in serum-free DMEM (Dulbecco's Modified Eagle Medium) containing 0.5% bovine serum albumin and 0.25 mM MnCl2. A group receiving no compound was used as a control. The reacted cell suspensions were added to separate wells of the above human periostin-immobilized plate, and the plate was centrifuged at 10×g for 5 minutes and then cultured at 37 °C for 60 minutes. Then, after the adhered cells were washed to remove unbound cells, the adhered cells were fixed with 1% formaldehyde and stained with 0.5% crystal violet. The fixed and stained cells were solubilized with 0.2% Triton X-100 and measured for absorbance at 595 nm. The absorbance of the control (i.e., the group receiving no compound) was set to 0% inhibition. […] Cell adhesion in this test system is periostin-dependent, and a compound inhibiting this cell adhesion can be referred to as a periostin receptor antagonist.

[5] = Solubility in the diluent; format: physicochemical; details: diluent: physiological saline containing 50% DMSO and 89.5 mM HCl
Procedure: as §1

scratching behaviors = details: intracutaneous or subcutaneous administration; Non-patent Document 2; cited from earlier work

IC50 (integrin αvβ3 [4]): ≤ 1 nM
cell adhesion inhibitory effect (in words) (integrin αvβ3 [4]): high
Molecule: O=C(NC[C@H](NS(=O)(=O)c1ccccc1)C(=O)O)c1ccc(N2CCC[C@H](NC3=NCCCN3)C2)cc1 [CP derivative 6, (S)-2-(Phenylsulfonamido)-3-(4-((S)-3-((1,4,5,6-tetrahydropyrimidin-2-yl)amino)piperidin-1-yl)benzamido)propanoic acid]
inhibition of binding between integrin αvβ3 and periostin (integrin αvβ3 [1]): inhibit binding
% Change from baseline in the number of scratchings (mean ± standard error) ([2]; 53.7 μmol/kg i.p.): −77.8 ± 7.9%
grade of effect on % change from the baseline in the number of scratchings ([2]; single i.p., 53.7 μmol/kg (GLPG-0187 5.37 μmol/kg), paired t-test): ++ (mean change from the baseline was −65% or more at a P-value of less than 0.01)
inhibition of binding between integrin αvβ3 and vitronectin (integrin αvβ3 [3]): inhibit binding

solubility [5]: low solubility
IC50 (integrin αvβ3 [4]): ≤ 1 nM
cell adhesion inhibitory effect (in words) (integrin αvβ3 [4]): high
Molecule: COc1ccc(S(=O)(=O)N[C@@H](CNc2nc(C)nc(N3CCC(c4ccc5c(n4)NCCC5)CC3)c2C)C(=O)O)cc1 [GLPG-0187, (S)-3-((2,5-dimethyl-6-(4-(5,6,7,8-tetrahydro-1,8-naphthyridin-2-yl)piperidin-1-yl)pyrimidin-4-yl)amino)-2-((4-methoxyphenyl)sulfonamido)propanoic acid]
% Change from baseline in the number of scratchings (mean ± standard error) ([2]; 5.37 μmol/kg i.p.): −38.9 ± 31.2%

B1: Periostin: extracellular matrix protein that binds to cell surface receptors belonging to the integrin family (protein, UniProt Q15063 22-836, looked up)
Periostin: NNHYDKILAHSRIRGRDQGPNVCALQQILGTKKKYFSTCKNWYKKSICGQKTTVLYECCPGYMRMEGMKGCPAVLPIDHVYGTLGIVGATTTQRYSDASKLREEIEGKGSFTYFAPSNEAWDNLDSDIRRGLESNVNVELLNALHSHMINKRMLTKDLKNGMIIPSMYNNLGLFINHYPNGVVTVNCARIIHGNQIATNGVVHVIDRVLTQIGTSIQDFIEAEDDLSSFRAAAITSDILEALGRDGHFTLFAPTNEAFEKLPRGVLERIMGDKVASEALMKYHILNTLQCSESIMGGAVFETLEGNTIEIGCDGDSITVNGIKMVNKKDIVTNNGVIHLIDQVLIPDSAKQVIELAGKQQTTFTDLVAQLGLASALRPDGEYTLLAPVNNAFSDDTLSMDQRLLKLILQNHILKVKVGLNELYNGQILETIGGKQLRVFVYRTAVCIENSCMEKGSKQGRNGAIHIFREIIKPAEKSLHEKLKQDKRFSTFLSLLEAADLKELLTQPGDWTLFVPTNDAFKGMTSEEKEILIRDKNALQNIILYHLTPGVFIGKGFEPGVTNILKTTQGSKIFLKEVNDTLLVNELKSKESDIMTTNGVIHVVDKLLYPADTPVGNDQLLEILNKLIKYIQIKFVRGSTFKEIPVTVYTTKIITKVVEPKIKVIEGSLQPIIKTEGPTLTKVKIEGEPEFRLIKEGETITEVIHGEPIIKKYTKIIDGVPVEITEKETREERIITGPEIKYTRISTGGGETEETLKKLLQEEVTKVTKFIEGGDGHLFEDEEIKRLLQGDTPVRKLQANKKVQGSRRRLREGRSQ
induction of scratching behaviors (scratching behaviors): induce scratching behaviors
